Key:
[1] = tested on: bicistronic HCV replicon (replicon RNA, GenBank Accession No. AJ242654); test: HCV Replicon Assay; type: cell-based; settings: Hepatitis C virus, 72 h, read-out: Replicon IC50

| SMILES | melting point | IC50 [1] |
| --- | --- | --- |
| C[C@H](NS(=O)(=O)c1ccc(-c2c(C#N)c3cc(F)ccc3n2-c2ccccn2)nc1)C(F)(F)F [compound 386, 6-[3-cyano-5-fluoro-1-(pyridin-2-yl)-1H-indol-2-yl]-N-[(2S)-1,1,1-trifluoropropan-2-yl]pyridine-3-sulfonamide] | 210 to 212 °C | < 500 nM |
| C[C@H](NS(=O)(=O)c1ccc(-c2c(C#N)c3ccc(OC(F)F)cc3n2-c2ccccn2)nc1)C(F)(F)F [compound 387, 6-[3-cyano-6-(difluoromethoxy)-1-(pyridin-2-yl)-1H-indol-2-yl]-N-[(2S)-1,1,1-trifluoropropan-2-yl]pyridine-3-sulfonamide] | 199 to 203 °C | < 500 nM |
| Cc1ccc2c(c1)c(C#N)c(-c1ncc(S(=O)(=O)NC(C)C)cn1)n2CC1CC1 [compound 388, 2-[3-cyano-1-(cyclopropylmethyl)-5-methyl-1H-indol-2-yl]-N-(propan-2-yl)pyrimidine-5-sulfonamide] | 219 to 222 °C | 500 to 2000 nM |
| Cc1ccc2c(c1)c(C#N)c(-c1ncc(S(=O)(=O)N[C@@H](C)C(F)(F)F)cn1)n2CC1CC1 [compound 389, 2-[3-cyano-1-(cyclopropylmethyl)-5-methyl-1H-indol-2-yl]-N-[(2S)-1,1,1-trifluoropropan-2-yl]pyrimidine-5-sulfonamide] | 220 to 223 °C | 500 to 2000 nM |
| Cc1ccc2c(c1)c(C#N)c(-c1ncc(S(=O)(=O)N[C@@H](C)C(F)(F)F)cn1)n2C1CCCCC1 [compound 390, 2-(3-cyano-1-cyclohexyl-5-methyl-1H-indol-2-yl)-N-[(2S)-1,1,1-trifluoropropan-2-yl]pyrimidine-5-sulfonamide] | 218 to 223 °C | 500 to 2000 nM |
| Cc1ccc2c(c1)c(C#N)c(-c1ncc(S(=O)(=O)N[C@@H](C)C(F)(F)F)cn1)n2C1CCCC1 [compound 391, 2-(3-cyano-1-cyclopentyl-5-methyl-1H-indol-2-yl)-N-[(2S)-1,1,1-trifluoropropan-2-yl]pyrimidine-5-sulfonamide] | 180 to 185 °C | < 500 nM |
| C[C@H](NS(=O)(=O)c1cnc(-c2c(C#N)c3cc(C#N)ccc3n2C2CCCC2)nc1)C(F)(F)F [compound 392, 2-(3,5-dicyano-1-cyclopentyl-1H-indol-2-yl)-N-[(2S)-1,1,1-trifluoropropan-2-yl]pyrimidine-5-sulfonamide] | 250 to 254 °C | < 500 nM |
| C[C@H](NS(=O)(=O)c1cnc(-c2c(C#N)c3cc(F)ccc3n2C2CCCCC2)nc1)C(F)(F)F [compound 393, 2-(3-cyano-1-cyclohexyl-5-fluoro-1H-indol-2-yl)-N-[(2S)-1,1,1-trifluoropropan-2-yl]pyrimidine-5-sulfonamide] | 236 to 238 °C | < 500 nM |
| C[C@H](NS(=O)(=O)c1ccc(-c2c(C#N)c3ccc(F)cc3n2C2CCCCC2)nc1)C(F)(F)F [compound 394, 6-(3-cyano-1-cyclohexyl-6-fluoro-1H-indol-2-yl)-N-[(2S)-1,1,1-trifluoropropan-2-yl]pyridine-3-sulfonamide] | 213 to 215 °C | < 500 nM |
| C[C@H](NS(=O)(=O)c1ccc(-c2c(C#N)c3ccc(F)cc3n2C2CCC2)nc1)C(F)(F)F [compound 395, 6-(3-cyano-1-cyclobutyl-6-fluoro-1H-indol-2-yl)-N-[(2S)-1,1,1-trifluoropropan-2-yl]pyridine-3-sulfonamide] | 171 to 172 °C | < 500 nM |
| C[C@H](NS(=O)(=O)c1ccc(-c2c(C#N)c3ccc(F)cc3n2C2CCCC2)nc1)C(F)(F)F [compound 396, 6-(3-cyano-1-cyclopentyl-6-fluoro-1H-indol-2-yl)-N-[(2S)-1,1,1-trifluoropropan-2-yl]pyridine-3-sulfonamide] | 132 to 133 °C | < 500 nM |
| C[C@H](NS(=O)(=O)c1ccc(-c2c(C#N)c3ccc(F)cc3n2CC2CC2)nc1)C(F)(F)F [compound 397, 6-[3-cyano-1-(cyclopropylmethyl)-6-fluoro-1H-indol-2-yl]-N-[(2S)-1,1,1-trifluoropropan-2-yl]pyridine-3-sulfonamide] | 174 to 175 °C | < 500 nM |
| C[C@H](NS(=O)(=O)c1cnc(-c2c(C#N)c3ccc(OC(F)F)cc3n2CC2CC2)nc1)C(F)(F)F [compound 398, 2-[3-cyano-1-(cyclopropylmethyl)-6-(difluoromethoxy)-1H-indol-2-yl]-N-[(2S)-1,1,1-trifluoropropan-2-yl]pyrimidine-5-sulfonamide] | 211 to 212 °C | < 500 nM |
| CC(C)n1c(-c2ncc(S(=O)(=O)N[C@@H](C)C(F)(F)F)cn2)c(C#N)c2ccc(OC(F)F)cc21 [compound 399, 2-[3-cyano-6-(difluoromethoxy)-1-(propan-2-yl)-1H-indol-2-yl]-N-[(2S)-1,1,1-trifluoropropan-2-yl]pyrimidine-5-sulfonamide] | 219 to 221 °C | < 500 nM |
| CCCn1c(-c2ncc(S(=O)(=O)N[C@@H](C)C(F)(F)F)cn2)c(C#N)c2ccc(OC(F)F)cc21 [compound 400, 2-[3-cyano-6-(difluoromethoxy)-1-propyl-1H-indol-2-yl]-N-[(2S)-1,1,1-trifluoropropan-2-yl]pyrimidine-5-sulfonamide] | 207 to 208 °C | < 500 nM |
| C[C@H](NS(=O)(=O)c1cnc(-c2c(C#N)c3ccc(C4CC4)cc3n2C2CCCC2)nc1)C(F)(F)F [compound 401, 2-(3-cyano-1-cyclopentyl-6-cyclopropyl-1H-indol-2-yl)-N-[(2S)-1,1,1-trifluoropropan-2-yl]pyrimidine-5-sulfonamide] | 238 to 239 °C | < 500 nM |
| Cc1ccc2c(C#N)c(-c3ncc(S(=O)(=O)N[C@@H](C)C(F)(F)F)cn3)n(CC3CC3)c2c1 [compound 402, 2-[3-cyano-1-(cyclopropylmethyl)-6-methyl-1H-indol-2-yl]-N-[(2S)-1,1,1-trifluoropropan-2-yl]pyrimidine-5-sulfonamide] | 259 to 260 °C | < 500 nM |
| Cc1ccc2c(C#N)c(-c3ncc(S(=O)(=O)N[C@@H](C)C(F)(F)F)cn3)n(C(C)C)c2c1 [compound 403, 2-[3-cyano-6-methyl-1-(propan-2-yl)-1H-indol-2-yl]-N-[(2S)-1,1,1-trifluoropropan-2-yl]pyrimidine-5-sulfonamide] | 235 to 236 °C | 500 to 2000 nM |
| Cc1ccc2c(C#N)c(-c3ncc(S(=O)(=O)N[C@@H](C)C(F)(F)F)cn3)n(C3CCCC3)c2c1 [compound 404, 2-(3-cyano-1-cyclopentyl-6-methyl-1H-indol-2-yl)-N-[(2S)-1,1,1-trifluoropropan-2-yl]pyrimidine-5-sulfonamide] | 223 to 224 °C | < 500 nM |
| COc1ccc2c(C#N)c(-c3ncc(S(=O)(=O)N[C@@H](C)C(F)(F)F)cn3)n(C3CCC3)c2c1 [compound 405, 2-(3-cyano-1-cyclobutyl-6-methoxy-1H-indol-2-yl)-N-[(2S)-1,1,1-trifluoropropan-2-yl]pyrimidine-5-sulfonamide] | 254 to 255 °C | < 500 nM |

— US8735414B2 (priority 2009, dated 2014)
